This is an account of results in patent publication US9687470B2, “Compounds for use in the treatment of filariasis” (RHEINISCHE FRIEDRICH-WILHELMS UNIVERSITAET BONN, priority 2011, dated 2017).

“Also recorded” adds a separate entry of the source.

One data set deals with Litomosoides sigmodontis. The data set can be described thus: Worm length (larval development) of L. sigmodontis recovered from treated BALB/c mice. It is filed as in vivo, Litomosoides sigmodontis in BALB/c mice. As to conditions: worms recovered five weeks post infection. The protocol: The effect of corallopyronin A in vivo was determined in a rodent model of BALB/c mice infected with the rodent filarial worm Litomosoides sigmodontis host to Wolbachia. L. sigmodontis a well established model for human filarial worms. A key advantage of this model is the fact that administration of anti-wolbachial drugs concomitant with infection by the L. sigmodontis larvae allows for a rapid assessment of activity on the day the worms are retrieved from the infected animals. […] The L. sigmodontis life cycle was maintained at the Institute for Medical Microbiology, Immunology and Parasitology as described by Al-Qaoud KM et al. (1997) “Infection of BALB/c mice with the filarial nematode Litomosoides sigmodontis: role of CD4+T cells in controlling larval development”, Infect Immun 65: 2457-2461. Female BALB/c mice aged 6-8 weeks were purchased from Charles River, Sulzfeld, Germany. […] The worms were sorted by sex with the aid of a dissecting microscope and their lengths measured. […] Normal distribution of the data was calculated using the D′Agostino & Pearson omnibus normality test. […] Alls statistics were calculated using GraphPad Prism version 5.00 for Windows, GraphPad Software, San Diego Calif. […]

Data set [1] relates to Wolbachia of A. albopictus. The data set can be described thus: Susceptibility of Wolbachia to corallopyronin A in vitro (infected C6/36 cells, qPCR 16S-rRNA/actin ratio). It counts as cell-based. The protocol: The activity of corallopyronin A against Wolbachia was tested in vitro using the Aedes albopictus C6/36 cell line infected with Wolbachia of A. albopictus.
The susceptibility of Wolbachia towards corallopyronin A was investigated as described previously (Henrichfreise, Schiefer et al., “Functional conservation of the lipid II biosynthesis pathway in the cell wall-less bacteria Chlamydia and Wolbachia: why is lipid II needed?”, (2009) Mol Microbiol, 73 (5): 913-923) with some modifications.
The A. albopictus cell line C6/36 (European Collection of Cell Cultures) infected with Wolbachia from A. albopictus B containing supernatant as described in Turner et al., J Immunol 2006, 177(2): 1240-1249 were cultured in 96-well plates by seeding each well with 1×10^4 insect cells. The cells were incubated for 9 days at 26° C. in L15 Leibovitz's medium (Invitrogen, Darmstadt, Germany) supplemented with 5% fetal calf serum (FCS, Invitrogen), 1% nonessential amino acids (PAA Laboratories, Colbe, Germany), 0.59 mg/ml tryptose phosphate broth (Sigma, Munich, Germany) and 0.01% penicillin/streptomycin (PAA Laboratories) with and without 4 μg/ml doxycycline (Merck, Darmstadt, Germany) and 1, 0.1 and 0.01 μg/ml corallopyronin A in duplicate. The medium was replaced every third day. The treated cells were harvested on day 9.
Extraction of genomic DNA was performed with the QIAamp Kit (Qiagen, Hilden, Germany) according to the instructions of the manufacturer. Depletion of Wolbachia was monitored by quantitative real-time PCR (qPCR) using the primers 16S-rRNA-Fw (5′-[…]-3′, SEQ ID NO: 1) and 16S-rRNA-Rev (5′-GTGTGGCTGATCATCCTCT-3′, SEQ ID NO: 2) which target the 16S-rRNA gene (GenBank Accession #: X61767) of Wolbachia and Ac-Fw (5′-[…]-3′, SEQ ID NO: 3) and Ac-Rev (5′-[…]-3′, SEQ ID NO: 4) for actin (GenBank Accession #: DQ657949) of the C6/36 cells.
The PCR reaction mixtures were 20 μl of 1× HotStar Taq Buffer (Qiagen), 3 mM MgCl2, 0.2 mM dNTPs (PeqLab, Erlangen, Germany), 0.5 μM forward and reverse 16S-rRNA primers or 0.3 μM forward and reverse actin primers, 0.2 μl of a 1:1000 dilution in DMSO of SybrGreen (Roche, Mannheim, Germany), 0.5 units HotStar Taq polymerase and 2 μl of gDNA. […] Specific amplification was confirmed by a melting curve analysis from 72° C. to 95° C. with fluorescence acquired on the FAM channel at 1° C. intervals. The copy number of each gene was calculated using a plasmid containing the appropriate insert as standard curve. […]
Normal distribution of the data was calculated using the D′Agostino & Pearson omnibus normality test. […] Alls statistics were calculated using GraphPad Prism version 5.00 for Windows, GraphPad Software, San Diego Calif. […]

A short description of data set [2]: Tolerability in infected BALB/c mice. It counts as in vivo. As to conditions: 35 mg/kg/day dosage. The protocol:
Female BALB/c mice aged 6-8 weeks were purchased from Charles River, Sulzfeld, Germany. The mice were infected with L. sigmodontis larvae as described in by Al-Qaoud K M et al. Beginning the day after the infection, the mice were untreated or given intra-peritoneal injections of: 10% dimethyl sulfoxide (DMSO) (vehicle control), 50 mg/kg/day doxycycline (Merck), or 35 mg/kg/day of corallopyronin A. Doxycycline was given for 14 days while corallopyronin A and 10% DMSO (vehicle control) were given for 28 days. All substances were diluted in phosphate buffered saline (PBS, PAA Laboratories).

The test system of a further data set is C6/36 cells. It is filed as cell-based, Aedes albopictus.
Data set [3] is described as follows: Stability of corallopyronin A injection samples in PBS by analytical HPLC. It counts as physicochemical. As to conditions: samples in PBS used for injection; days 1, 14 and 28; compared with purified corallopyronin A. The protocol:
To verify that the corallopyronin A was stable over the whole period of the in vivo experiment, aliquots of the samples in phosphate buffered saline (PBS, PAA Laboratories, Colbe, Germany) which were used for injection were analyzed by High performance liquid chromatography (HPLC). The conditions for the analytical HPLC runs were the same as above. […] Five weeks post infection worms were recovered from the pleural cavity by lavage with PBS. The worms were sorted by sex with the aid of a dissecting microscope and their lengths measured. 10 female worms from each treatment were individually frozen for DNA extraction.

The subject of another data set is Wolbachia. In words: Susceptibility of Wolbachia in vivo: depletion from L. sigmodontis worms in infected BALB/c mice (qPCR ftsZ/actin). Also on record: species or system Wolbachia of Litomosoides sigmodontis in BALB/c mice. How it is done:
The effect of corallopyronin A in vivo was determined in a rodent model of BALB/c mice infected with the rodent filarial worm Litomosoides sigmodontis host to Wolbachia. L. sigmodontis a well established model for human filarial worms. A key advantage of this model is the fact that administration of anti-wolbachial drugs concomitant with infection by the L. sigmodontis larvae allows for a rapid assessment of activity on the day the worms are retrieved from the infected animals.
The L. sigmodontis life cycle was maintained at the Institute for Medical Microbiology, Immunology and Parasitology as described by Al-Qaoud KM et al. (1997) “Infection of BALB/c mice with the filarial nematode Litomosoides sigmodontis: role of CD4+T cells in controlling larval development”, Infect Immun 65: 2457-2461.
Female BALB/c mice aged 6-8 weeks were purchased from Charles River, Sulzfeld, Germany. […]
To control for degradation over time, an aliquot of corallopyronin A was frozen for HPLC analysis on days 1, 14 and 28. […] The worms were sorted by sex with the aid of a dissecting microscope and their lengths measured. […]
Depletion of Wolbachia was monitored by qPCR using the primers Ls-FtsZ-Fw (5′-[…]-3′, SEQ ID NO: 5) and Ls-FtsZ-Rev (5′-TTGCAATTACTGGTGCTGC-3′, SEQ ID NO: 6) and hybridization probe (5′-6-FAM-[…]-TAMRA-3′, SEQ ID NO: 7) which target ftsZ (GenBank Accession #: AJ010271), a single copy number gene of Wolbachia. […] Cycling conditions were: 95° C. for 15 minutes followed by 35 cycles of 94° C. for 4 seconds, 58° C. for 30 seconds and 72° C. for 15 seconds with fluorescence acquired on the FAM channel as described in Arumugam S et al., Int J Parasitol 2008, 38: 981-987.
To normalize the ftsZ content of worms of different lengths, the L. sigmodontis actin gene (GenBank Accession No.: GU971367) was quantified by qPCR using the primers Ac-Fw (5′-[…]-3′, SEQ ID NO: 8) and Ac-Rev (5′-[…]-3′, SEQ ID NO: 9). […]
Background: In qPCR the cycle at which signal appears reflects the starting amount.

Turning to `C[C@H]1c2cccc(O)c2C(=O)C2=C(O)[C@]3(O)C(=O)C(C(N)=O)=C(O)[C@@H](N(C)C)[C@@H]3[C@@H](O)[C@@H]21` [doxycycline, reference compound], in the data set with Litomosoides sigmodontis (doxycycline 50 mg/kg/day intra-peritoneal for 14 days, untreated 38 mm, vehicle 34 mm), the “worm length (median)” value was 8.3 mm.
For the compound `C/C=C/C/C=C(/C)[C@H](O)CC/C(C)=C/C=C(\C)C(=O)c1c(O)cc([C@H](C)CC/C=C/NC(=O)OC)oc1=O` [corallopyronin A, methyl N-[(1E)-5-[4-hydroxy-3-[(2E,4E,9Z,12E)-8-hydroxy-2,5,9-trimethyltetradeca-2,4,9,12-tetraenoyl]-2-oxo-2H-pyran-6-yl]hex-1-en-1-yl]carbamate], the “depletion of Wolbachia relative to doxycycline” value in data set [1] (1 μg/ml versus 4 μg/ml doxycycline, nine days, C6/36 cell line) is recorded as “levels equivalent to 4 μg/ml of the tetracycline doxycycline; also recorded: levels equivalent to those of 4 μg/ml doxycycline”. The “depletion of Wolbachia” value in data set [1] (beginning at 0.1 μg/ml, nine days of treatment, C6/36 cell line) is greater than 50%. The “anti-wolbachial effect in vitro” value in data set [1] (in vitro tests, summary statement) is “potent anti-wolbachial effect”. For the same compound, the “dose dependence of Wolbachia depletion” value in data set [1] (nine day assay, 1, 0.1 and 0.01 μg/ml) is “dose dependent manner”. Besides, in data set [2], the tolerability in mice entry was “well tolerated” and the “visually apparent toxic effects in mice” value is listed as “no toxic effects were visually apparent”. In the data set with Litomosoides sigmodontis (35 mg/kg/day intra-peritoneal for 28 days, control worms 38 mm), this compound gave a worm length of 9.0 mm. In the data set on C6/36 cells, the “toxicity to cells / cell growth” value is listed as “without apparent cytotoxic effects”. In addition, the “degradation of corallopyronin A (HPLC)” value in data set [3] is reported as “no degradation”. Also, in the data set with Wolbachia (35 mg/kg/day for 28 days versus doxycycline 50 mg/kg/day for 14 days), the “Wolbachia depletion from worms relative to doxycycline” value is on record as “levels below those seen for doxycycline”. Also, the “depletion of the Wolbachia compared to the control” value in the data set on Wolbachia (BALB/c mice infected with L. sigmodontis, 35 mg/kg/day intra-peritoneal for 28 days) is greater than 99%. In the data set on Wolbachia (in vivo tests, summary statement), the “anti-wolbachial effect in vivo” value is given as “potent anti-wolbachial effect”.
